From ChEMBL document CHEMBL1150218, “Antitubercular activity of triterpenoids from Lippia turbinata” (J Nat Prod, 2001) come the findings set out here.

Values after ≈ are worked out from the molar mass of the structure shown. Some results are limits rather than exact numbers.

What is called MIC is the lowest concentration found to suppress growth. For orientation: IC50 means the concentration that inhibits the measured activity by half.

Assay [1] relates to Mycobacterium tuberculosis. The experiment in a line: Antitubercular activity against Mycobacterium tuberculosis H37Rv ATCC 27294 by radiometric BACTEC 460 system. Type of assay: functional.
Assay [2] deals with Vero. The experiment in a line: Cytotoxicity against african green monkey Vero cells. The format is cell-based. Conditions: Chlorocebus sabaeus.

For `CO[C@H]1/C=C/O[C@@]2(C)Oc3c(C)c(O)c4c(O)c(c(/C=N/N5CCN(C)CC5)c(O)c4c3C2=O)NC(=O)/C(C)=C\C=C\[C@H](C)[C@H](O)[C@@H](C)[C@@H](O)[C@@H](C)[C@H](OC(C)=O)[C@@H]1C` [RIFAMPIN], it took 0.3 µM (≈ 0.247 µg/mL) to inhibit growth in assay [1] (MIC).
Molecule `CC1(C)CC[C@]2(C(=O)O)CC[C@]3(C)C(=CC[C@@H]4[C@]56CC[C@@](O)(OC5)C(C)(C)[C@@H]6CC[C@]43C)[C@@H]2C1` [LANTANOLIC ACID] displayed an MIC in assay [1] of more than 128 µM.
On to `C/C=C(/C)C(=O)O[C@@H]1[C@@H](O)C(C)(C)C[C@H]2C3=CC[C@@H]4[C@]56CC[C@](O)(OC5)C(C)(C)[C@@H]6CC[C@@]4(C)[C@]3(C)CC[C@@]12C(=O)O`, for which inhibition of growth in assay [1] (MIC) required 64 µM (≈ 37.4 µg/mL).
The same measure, in the same setting: to `C/C=C(/C)C(=O)O[C@@H]1CC(C)(C)C[C@H]2C3=CC[C@@H]4[C@]56CC[C@@](O)(OC5)C(C)(C)[C@@H]6CC[C@@]4(C)[C@]3(C)CC[C@@]12C(=O)O` [CAMARIC ACID] belongs 64 µM (≈ 36.4 µg/mL); to `C/C=C(\C)C(=O)O[C@@H]1[C@@H](O)C(C)(C)C[C@H]2C3=CC[C@@H]4[C@]56CC[C@](O)(OC5)C(C)(C)[C@@H]6CC[C@@]4(C)[C@]3(C)CC[C@@]12C(=O)O`, 128 µM (≈ 74.9 µg/mL).
Take `C/C=C(/C)C(=O)O[C@@H]1CC(C)(C)C[C@H]2C3=CC[C@@H]4[C@@]5(C)CCC(=O)C(C)(C)[C@@H]5CC[C@@]4(C)[C@]3(C)CC[C@@]12C(=O)O` [LANTADENE A]: the MIC in assay [1] stood at 32 µM (≈ 17.7 µg/mL). Moreover, half-maximal inhibition in assay [2] (IC50) required 15 µM.
The molecule `CC(C)=CC(=O)O[C@@H]1CC(C)(C)C[C@H]2C3=CC[C@@H]4[C@]56CC[C@@](O)(OC5)C(C)(C)[C@@H]6CC[C@@]4(C)[C@]3(C)CC[C@@]12C(=O)O` [LANTANILIC ACID] yielded an MIC in assay [1] of more than 128 µM.
The same measure, in the same setting: to `CCC(C)C(=O)O[C@@H]1CC(C)(C)C[C@H]2C3=CC[C@@H]4[C@]56CC[C@](O)(OC5)C(C)(C)[C@@H]6CC[C@@]4(C)[C@]3(C)CC[C@@]12C(=O)O` (stereo not given in full) belongs 128 µM (≈ 73.1 µg/mL); to `CC(C)=CC(=O)O[C@@H]1[C@@H](O)C(C)(C)C[C@H]2C3=CC[C@@H]4[C@]56CC[C@](O)(OC5)C(C)(C)[C@@H]6CC[C@@]4(C)[C@]3(C)CC[C@@]12C(=O)O`, 128 µM (≈ 74.9 µg/mL).
